This is an account of results in patent publication US8785351B2, “Herbicidal compositions containing bentazon and ALS inhibitor and ACCase inhibitor” (Dow AgroSciences LLC, priority 2012, dated 2014).

What all share (assay): Postemergence herbicidal activity of mixtures in the field (direct-seeded rice), visual weed control
What all share (format): in vivo

For assay [1], the system named is Fimbristylis miliacea (FIMMI, globe fringerush). Conditions: grams ai/ha: penoxsulam 10, bentazon-Na 900, cyhalofop-butyl 75, each alone or all three mixed, rice field trials. Here is the method: (§1) Evaluation of Postemergence Herbicidal Activity of Mixtures in the Field
(§2) Field trials were conducted in Vietnam and Taiwan in cultivated direct-seeded rice using standard herbicide small plot research methodology. Plots varied from 1×2 meter (m) to 4×5 m (width×length) with 3-4 replicates per treatment. The rice crop was grown using normal cultural practices for fertilization, seeding, watering, flooding and maintenance to ensure good growth of the crop and the weeds.
(§3) All treatments in the field trials were applied using a backpack air sprayer with flat fan nozzles calibrated to apply 320 to 450 L/ha spray volume at approximately 30 PSI. Commercially available products of penoxsulam (Clipper 25OD), bispyribac-sodium (Nominee 100SC), bentazon-sodium (Basagran 480SL), cyhalofop-butyl (Clincher 100EC), and fenoxaprop-P-ethyl (Whip S) were mixed in water at appropriate formulated product rates to achieve the desired rates based on a unit area of application (hectare) to achieve the desired rates as shown. Treatments were rated at 7 to 42 days after application (DAA) as compared to the untreated control plants. Visual weed control was scored on a scale of 0 to 100 percent where 0 corresponds to no injury and 100 corresponds to complete kill.
(§4) All treatment results, both for the single product and mixtures, are an average of 3 to 4 replicates and the tank mix interactions are significant at the […] level.
(§5) Colby's equation was used to determine the herbicidal effects expected from the mixtures (Colby, S. R. Calculation of the synergistic and antagonistic response of herbicide combinations. Weeds 1967, 15, 20-22.).
(§6) The following equation was used to calculate the expected activity of mixtures containing […]: Expected=A+B+C−(AB+AC+BC)/100+(ABC)/10,000
(§7) A=observed efficacy of active ingredient A at the same concentration as used in the mixture.
(§8) B=observed efficacy of active ingredient B at the same concentration as used in the mixture.
(§9) C=observed efficacy of active ingredient C at the same concentration as used in the mixture.
(§10) All comparisons are an average of 3 to 4 replicates and are significant at the […] level.

Assay [2] concerns Echinochloa crus-galli (ECHCG, barnyardgrass). Conditions: rice field trials. Here is the method: as §1, §2, §3, §4, §5, §6, §7, §8, §9, §10
The subject of assay [3] is Cyperus iria (CYPIR, rice flatsedge). Conditions: grams ai/ha: penoxsulam 1, bentazon-Na 112.5, cyhalofop-butyl 9.4, each alone or all three mixed, rice field trials. Here is the method:
as §1, §2, §3, §4, §5, §6, §7, §8, §9, §10

Assay [4] has as its system Leptochloa chinensis (LEFCH, Chinese sprangletop). Conditions: grams ai/ha: penoxsulam 1.6, bentazon-Na 112.5, cyhalofop-butyl 37.5, each alone or all three mixed, rice field trials. Here is the method:
as §1, §2, §3, §4, §5, §6, §7, §8, §9, §10

Assay [5] concerns Monochoria vaginalis (MOOVA, monochoria). To be noted: rice field trials. Here is the method: as §1, §2, §3, §4, §5, §6, §7, §8, §9, §10
Setting [6] is: grams ai/ha: penoxsulam 4 alone (6 in the mix), bentazon-Na 450, fenoxaprop-P-ethyl 8, each alone or all three mixed.
[7] abbreviates: grams ai/ha: penoxsulam 10, bentazon-Na 900, cyhalofop-butyl 75, each alone or all three mixed.
The mark [8] stands for this setting: grams ai/ha: bispyribac-Na 4, bentazon-Na 225, cyhalofop-butyl 75, each alone or all three mixed.
Setting [9] is: grams ai/ha: penoxsulam 5, bentazon-Na 450, cyhalofop-butyl 37.5, each alone or all three mixed.

Molecules are shown by their SMILES.

For `CC(C)N1C(=O)c2ccccc2NS1(=O)=O` [Bentazon (Na), 3-(1-methylethyl)-1H-2,1,3-benzothiadiazin-4(3H)-one 2,2-dioxide], the “% Visual Control FIMMI (42 DAA) Obs” value in assay [1] stood at 0%. The “% Visual Control ECHCG (7 DAA) Obs” value in assay [2] (setting [6]) stood at 0%. For the same compound, in assay [2] (setting [7]), the “% Visual Control ECHCG (7 DAA) Obs” value amounted to 0%, the “% Visual Control ECHCG (14 DAA) Obs” value is listed as 0% and the “% Visual Control ECHCG (28 DAA) Obs” value was 0%. The “% Visual Control ECHCG (14 DAA) Obs” value in assay [2] (setting [8]) is reported as 0%. For the same compound, the “% Visual Control CYPIR (42 DAA) Obs” value in assay [3] came out at 63%. The “% Visual Control LEFCH (7 DAA) Obs” value in assay [4] is 0%. Also, in assay [5] (setting [6]), the “% Visual Control MOOVA (7 DAA) Obs” value was 17%. Further, in assay [5] (setting [9]), the “% Visual Control MOOVA (7 DAA) Obs” value stood at 0% and the “% Visual Control MOOVA (14 DAA) Obs” value amounted to 0%.
As to `COc1cnc(OC)n2nc(NS(=O)(=O)c3c(OCC(F)F)cccc3C(F)(F)F)nc12` [Penoxsulam, 2-(2,2-difluoroethoxy)-N-(5,8-dimethoxy[1,2,4]triazolo[1,5-c]pyrimidin-2-yl)-6-(trifluoromethyl)benzenesulfonamide], the “% Visual Control FIMMI (42 DAA) Obs” value in assay [1] was determined as 78%. Moreover, the “% Visual Control ECHCG (7 DAA) Obs” value in assay [2] (setting [6]) amounted to 61%. For the same compound, in assay [2] (setting [7]), the “% Visual Control ECHCG (7 DAA) Obs” value is 58%, the “% Visual Control ECHCG (14 DAA) Obs” value is 60% and the “% Visual Control ECHCG (28 DAA) Obs” value stood at 60%. The “% Visual Control CYPIR (42 DAA) Obs” value in assay [3] came to 75%. Moreover, the “% Visual Control LEFCH (7 DAA) Obs” value in assay [4] is reported as 0%. Further, in assay [5] (setting [6]), the “% Visual Control MOOVA (7 DAA) Obs” value worked out at 22%. Also, in assay [5] (setting [9]), the “% Visual Control MOOVA (7 DAA) Obs” value amounted to 77% and the “% Visual Control MOOVA (14 DAA) Obs” value came out at 87%.
As to `CCCCOC(=O)[C@@H](C)Oc1ccc(Oc2ccc(C#N)cc2F)cc1` [Cyhalofop (Butyl), (R)-butyl 2-[4-(4-cyano-2-fluorophenoxy)phenoxy]propanoate], the “% Visual Control FIMMI (42 DAA) Obs” value in assay [1] is 60%. For the same compound, in assay [2] (setting [7]), the “% Visual Control ECHCG (7 DAA) Obs” value came to 37%, the “% Visual Control ECHCG (14 DAA) Obs” value was found to be 43% and the “% Visual Control ECHCG (28 DAA) Obs” value is listed as 40%. The “% Visual Control ECHCG (14 DAA) Obs” value in assay [2] (setting [8]) came to 40%. Also, in assay [3], the “% Visual Control CYPIR (42 DAA) Obs” value turned out to be 0%. Further, in assay [4], the “% Visual Control LEFCH (7 DAA) Obs” value was 83%. In assay [5] (setting [9]), the “% Visual Control MOOVA (7 DAA) Obs” value was 0% and the “% Visual Control MOOVA (14 DAA) Obs” value was 0%.
Consider `CCOC(=O)[C@@H](C)Oc1ccc(Oc2nc3ccc(Cl)cc3o2)cc1` [Fenoxaprop-P (Ethyl), (R)-ethyl-2-[4-(6-chloro-1,3-benzoxazol-2-yloxy)phenoxy]propanoate], for which, in assay [2] (setting [6]), the “% Visual Control ECHCG (7 DAA) Obs” value amounted to 0%. Also, in assay [5] (setting [6]), the “% Visual Control MOOVA (7 DAA) Obs” value was 0%.
In the case of `COc1cc(OC)nc(Oc2cccc(Oc3nc(OC)cc(OC)n3)c2C(=O)[O-])n1.[Na+]` [Bispyribac (Na), sodium 2,6-bis(4,6-dimethoxypyrimidin-2-yloxy)benzoate], the “% Visual Control ECHCG (14 DAA) Obs” value in assay [2] (setting [8]) was 0%.
